In patent US11111500B2, “Mutated protoporphyrinogen IX oxidase (PPX) genes” (CIBUS US LLC, priority 2010, dated 2021):

Tested on: potato protoplasts (protoplast derived microcalli)
Experiment: Flumioxazin kill curve with cell suspension and shoot tip-derived protoplasts
Type: cell-based
Conditions: for # Of calli in 3 beads, # / # Of calli in 3 beads, %: Non treated protoplast + PEG; for # Of calli in 3 beads, # / # Of calli in 3 beads, % / # of calli in 3 beads, # / # of calli in 3 beads, %: one month; for # Of calli in 3 beads, % / # of calli in 3 beads, %: % of average control; for # of calli in 3 beads, # / # of calli in 3 beads, %: Stop-GFP + Correcting GRON
Method: Herbicide selection experiments were performed to determine the concentration of herbicide necessary to kill protoplast derived microcalli in a defined treatment period. […] The herbicide was suspended in DMSO, with the final concentration of DMSO in the herbicide treatments being 1%. Development of cells was evaluated under the microscope once a week. […] A flumioxazin concentration of 0.032 mM is sufficient to prevent microcallus development from potato protoplasts.
About 200 shoot tips of 2-8 week-old in vitro shoots that have been cultured under a regular day/night regime, or, preferably were kept for two days before protoplast isolation in the dark, shoots may be cut into small pieces with a scalpel in a petri dish with sterile water. After all tips have been cut, the water is replaced with protoplast culture medium, preferably BN (B5 Salts and Vitamins (Phytotechnology Laboratories), glucose 20 g/L, mannitol 70 g/L, alpha naphthalene acetic acid 5 mg/L, additional CaCl2×2H2O 600 mg/L, casein hydrolysate 250 mg/L, cystcine-HCL 10 mg/L, polyvinylpyrrolidone (MW 10,000) 5 g/L. After approximately 1-2 h, the protoplast culture medium is replaced with enzyme solution, for example consisting of medium BN, in which 0.5% (w/v) Cellulase YC and 0.75% (w/v) Maccrozyme R10 (both from Karlan Research Products, Cottonwood, Ariz.), 1 g/L bovine serum albumin, and 1 g/L 2-morpholinoethanesulfonic acid are dissolved. The ratio of the number of shoot tips over the volume of enzyme solution can be between 10 and 16, preferably 13. The dish with shoot tip pieces in enzyme solution is incubated for at 25° C.-30° C., preferably 28° C., in darkness on a shaker set to about 50 rpm. After overnight incubation the protoplast suspension is purified using an iodixanol density gradient (adapted from Optiprep Application Sheet C18; Purification of Intact Plant Protoplasts; Axis-Shield USA, 10 Commerce Way, Norton, Mass. 02776). After the density gradient centrifugation, the band with purified protoplasts is removed together with about 5 mL W5 medium (Frigerio et al., 1998). The protoplast density and yield are determined with a hemocytometer. The protoplasts density is adjusted to 1×10^6/mL in BN medium containing 2 mg/L 2,6-dichlorobenzonitrile (cellulose synthase inhibitor), and the protoplasts are cultured in darkness at 30° C. for about 16 h.
1. Fast growing cell suspensions are used, preferably three days after their last subculture. 1.5 mL settled cell volume is transferred to about 15 ml BN medium, which after 2 h is replaced with enzyme solution. 2. The protoplast purification is followed immediately by the GRON/PEG treatment.
The protoplast suspension is mixed with an equal volume of W5 medium, transferred to a 50 mL centrifuge tube, and centrifuged for 10 min at the lowest setting of a clinical centrifuge (about 50×g). The supernatant is removed and replaced with TM medium (Klaus, S. Markerfreie transplastome Tabakpflanzen (Marker-free transplastomic tobacco plants). PhD Dissertation, 2002, Ludwig-Maximilians-Universitát Múnchen, 109 pp), adjusting the protoplast density to 5×10^6/mL. Aliquots of 100 μL containing 5×10^5 protoplasts each are distributed into 12 mL round bottom centrifuge tubes. GRONs (such as those shown in Table 14) targeted at one or more mutations in one or both of the mitochondrial and plastidal PPX genes are then introduced into the protoplasts using a PEG treatment. To introduce the GRONs into the protoplasts, 12.5 μg GRON dissolved in 25 μL purified water and 125 μL of a polyethylene glycol solution (5 g PEG MW 1500, 638 mg mannitol, 207 mg CaNO3×4H2O and 8.75 mL purified water; pH adjusted to about 9.0) is added. After a 10-30 min incubation on ice, the protoplast-PEG suspension is washed with W5 medium and resuspended in medium BN. The suspension is kept overnight in darkness at room temperature.
One day after the GRON introduction, protoplasts are embedded in calcium alginate. […]

C#CCN1C(=O)COc2cc(F)c(N3C(=O)C4=C(CCCC4)C3=O)cc21 [flumioxazin]
concentration sufficient to prevent microcallus development from potato protoplasts: 0.032 mM
# Of calli in 3 beads, # (flumioxazin 0.0156 μM): 40
# Of calli in 3 beads, % (flumioxazin 0.0156 μM): 25%
# Of calli in 3 beads, # (flumioxazin 0.0312 μM): 8
# Of calli in 3 beads, % (flumioxazin 0.0312 μM): 5%
# Of calli in 3 beads, # (flumioxazin 0.0468 μM): 0.0
# Of calli in 3 beads, % (flumioxazin 0.0468 μM): 0.0%
# Of calli in 3 beads, # (flumioxazin 0.0624 μM): 0
# Of calli in 3 beads, % (flumioxazin 0.0624 μM): 0%
# of calli in 3 beads, # (flumioxazin 0.0156 μM): 83
# of calli in 3 beads, % (flumioxazin 0.0156 μM): 39%
# of calli in 3 beads, # (flumioxazin 0.0312 μM): 11
# of calli in 3 beads, % (flumioxazin 0.0312 μM): 4%
# of calli in 3 beads, # (flumioxazin 0.0468 μM): 0.0
# of calli in 3 beads, % (flumioxazin 0.0468 μM): 0.0%
# of calli in 3 beads, # (flumioxazin 0.0624 μM): 0
# of calli in 3 beads, % (flumioxazin 0.0624 μM): 0%
microcalli development after one month (any concentration tested, 1% DMSO): no microcalli developed at any concentration tested
concentration sufficient to kill all cells within a week (initial kill curve): 125 µM
